The record followed here is patent US8178668B2, “2-aminopyridine kinase inhibitors” (OSI Pharmaceuticals, LLC, priority 2008, dated 2012).

One assay concerns the target RON (human) (Homo sapiens, UniProt Q04912). The assay is described as follows: RON kinase AlphaScreen assay (Km of ATP). It is filed as biochemical. The conditions noted are these: ATP at Km; at least duplicate experiments. In a few lines:
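AlphaScreen with PT66 donor/acceptor beads, read after 1 h, detected phosphorylation of biotinylated poly(Glu,Tyr) by human RON. Enzyme-started reactions ran 30 min at room temperature with ATP at Km. Buffer was HEPES pH 7.4 with MgCl2, glycerol, vanadate and 1% DMSO.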

A further assay addresses MET (human) (Homo sapiens, UniProt P08581). The experiment in a line: MET kinase AlphaScreen assay (Km of ATP). The assay is classed as biochemical. To be noted: ATP at Km; at least duplicate experiments. Put shortly: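 AlphaScreen detection with PT66 beads (1 h) follows a 60 min room-temperature MET reaction. Substrate is 200 ng/μL biotinylated poly(Glu,Tyr), with ATP set at an enzyme-optimized concentration. Buffer is HEPES pH 7.4 with MgCl2, MnCl2 and 0.334 mM vanadate, compounds at 1% DMSO.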

Sequence of MET (human) (P08581 25-1390): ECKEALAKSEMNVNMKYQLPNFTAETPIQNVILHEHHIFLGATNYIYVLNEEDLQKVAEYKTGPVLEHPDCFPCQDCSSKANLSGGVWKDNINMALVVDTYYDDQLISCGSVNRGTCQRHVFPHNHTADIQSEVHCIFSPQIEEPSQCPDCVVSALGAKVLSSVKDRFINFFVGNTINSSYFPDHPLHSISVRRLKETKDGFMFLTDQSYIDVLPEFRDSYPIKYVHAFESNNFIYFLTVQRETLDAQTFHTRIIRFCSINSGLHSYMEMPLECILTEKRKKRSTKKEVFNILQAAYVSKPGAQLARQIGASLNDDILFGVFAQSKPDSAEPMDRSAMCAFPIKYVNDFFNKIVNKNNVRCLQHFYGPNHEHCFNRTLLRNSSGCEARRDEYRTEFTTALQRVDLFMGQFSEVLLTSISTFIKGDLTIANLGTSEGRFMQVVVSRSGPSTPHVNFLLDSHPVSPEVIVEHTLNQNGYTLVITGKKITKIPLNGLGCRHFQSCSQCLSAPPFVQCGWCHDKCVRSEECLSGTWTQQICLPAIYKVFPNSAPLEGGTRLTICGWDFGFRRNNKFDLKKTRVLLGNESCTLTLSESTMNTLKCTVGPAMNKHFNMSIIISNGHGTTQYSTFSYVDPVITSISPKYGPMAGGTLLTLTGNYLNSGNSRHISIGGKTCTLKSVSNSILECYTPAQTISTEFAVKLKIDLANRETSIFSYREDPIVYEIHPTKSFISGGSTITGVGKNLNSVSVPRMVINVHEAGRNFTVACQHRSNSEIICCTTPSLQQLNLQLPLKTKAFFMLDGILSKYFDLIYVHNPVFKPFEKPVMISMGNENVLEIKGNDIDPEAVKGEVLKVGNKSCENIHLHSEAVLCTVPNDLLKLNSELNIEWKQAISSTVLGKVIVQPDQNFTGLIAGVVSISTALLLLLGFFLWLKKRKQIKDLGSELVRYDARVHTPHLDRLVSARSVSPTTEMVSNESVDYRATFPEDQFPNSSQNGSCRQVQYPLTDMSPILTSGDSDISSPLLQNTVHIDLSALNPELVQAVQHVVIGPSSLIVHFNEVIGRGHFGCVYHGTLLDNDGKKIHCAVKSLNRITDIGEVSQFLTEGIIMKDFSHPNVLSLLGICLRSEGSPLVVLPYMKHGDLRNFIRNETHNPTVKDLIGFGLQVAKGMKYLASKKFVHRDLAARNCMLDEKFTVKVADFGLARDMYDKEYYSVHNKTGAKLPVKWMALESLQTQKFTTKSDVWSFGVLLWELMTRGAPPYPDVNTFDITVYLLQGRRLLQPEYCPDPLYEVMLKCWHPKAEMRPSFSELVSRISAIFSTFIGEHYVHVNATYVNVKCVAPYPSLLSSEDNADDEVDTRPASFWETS
Sequence of RON (human) (Q04912 25-1400): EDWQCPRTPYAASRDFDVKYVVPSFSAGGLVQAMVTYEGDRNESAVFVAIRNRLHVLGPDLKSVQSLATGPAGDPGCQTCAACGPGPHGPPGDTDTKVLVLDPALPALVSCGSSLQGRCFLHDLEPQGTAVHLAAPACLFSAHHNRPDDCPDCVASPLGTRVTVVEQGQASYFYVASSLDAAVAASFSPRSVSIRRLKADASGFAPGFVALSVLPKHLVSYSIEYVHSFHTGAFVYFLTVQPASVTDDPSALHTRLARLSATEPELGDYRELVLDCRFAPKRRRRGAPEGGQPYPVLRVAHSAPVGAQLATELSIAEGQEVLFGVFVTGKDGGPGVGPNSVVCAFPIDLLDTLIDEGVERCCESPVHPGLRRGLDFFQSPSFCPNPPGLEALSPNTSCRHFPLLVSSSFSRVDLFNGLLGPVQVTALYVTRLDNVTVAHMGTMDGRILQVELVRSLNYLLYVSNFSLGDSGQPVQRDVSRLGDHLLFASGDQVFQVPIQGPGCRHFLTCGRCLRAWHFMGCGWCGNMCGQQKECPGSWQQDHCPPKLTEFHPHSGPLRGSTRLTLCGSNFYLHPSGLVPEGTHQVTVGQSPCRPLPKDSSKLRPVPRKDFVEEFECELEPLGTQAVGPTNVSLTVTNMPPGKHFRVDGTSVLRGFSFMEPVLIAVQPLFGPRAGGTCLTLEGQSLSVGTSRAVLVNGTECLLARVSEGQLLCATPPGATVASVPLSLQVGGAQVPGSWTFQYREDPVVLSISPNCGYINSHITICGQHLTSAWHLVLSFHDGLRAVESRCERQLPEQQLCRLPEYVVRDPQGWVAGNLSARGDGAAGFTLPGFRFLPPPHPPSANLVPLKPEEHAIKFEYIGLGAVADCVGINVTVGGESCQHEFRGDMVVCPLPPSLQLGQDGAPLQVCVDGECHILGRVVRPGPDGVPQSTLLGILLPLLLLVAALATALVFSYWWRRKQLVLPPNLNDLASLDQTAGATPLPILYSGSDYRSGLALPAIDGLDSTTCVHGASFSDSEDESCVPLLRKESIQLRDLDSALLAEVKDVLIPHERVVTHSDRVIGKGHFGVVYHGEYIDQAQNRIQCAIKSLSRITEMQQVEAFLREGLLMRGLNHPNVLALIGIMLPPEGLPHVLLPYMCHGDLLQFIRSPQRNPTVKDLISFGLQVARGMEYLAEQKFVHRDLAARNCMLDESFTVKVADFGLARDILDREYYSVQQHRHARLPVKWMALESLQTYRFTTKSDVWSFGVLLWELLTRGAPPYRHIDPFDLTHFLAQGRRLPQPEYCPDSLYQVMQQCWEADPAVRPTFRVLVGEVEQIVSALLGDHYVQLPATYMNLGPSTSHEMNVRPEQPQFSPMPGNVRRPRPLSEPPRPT

For the compound `Nc1ncc(-c2ccc(C(=O)O)nc2)cc1-c1nc2ccccc2s1` [Example 202, 6′-Amino-5′-benzothiazol-2-yl-[3,3′]bipyridinyl-6-carboxylic acid], the IC50 against RON (human) lay in the range of 1000 to 20000 nM; against MET (human), 100 to 1000 nM.
In the case of `Nc1ncc(-c2cccc(C(=O)N3CCCC3)c2)cc1-c1nc2ccccc2s1` [Example 204, [3-(6-Amino-5-benzothiazol-2-ylpyridin-3-yl)phenyl]pyrrolidin-1-ylmethanone], the values for the IC50 against RON (human) and against MET (human) were greater than 20000 nM and 1000 to 20000 nM, respectively.
On the same counts, the results for `CC(=O)NCCNC(=O)c1cccc(-c2cnc(N)c(-c3nc4ccccc4s3)c2)c1` [Example 205, N-(2-Acetylaminoethyl)-3-(6-amino-5-benzothiazol-2-ylpyridin-3-yl)benzamide] are 1000 to 20000 nM and 1000 to 20000 nM.
On the same counts, the results for `Nc1ncc(-c2cccc(C(=O)N3CCCCC3)c2)cc1-c1nc2ccccc2s1` [Example 206, [3-(6-Amino-5-benzothiazol-2-ylpyridin-3-yl)phenyl]piperidin-1-ylmethanone] are greater than 20000 nM and 1000 to 20000 nM.
`CCN(CC)CCNC(=O)c1cccc(-c2cnc(N)c(-c3nc4ccccc4s3)c2)c1` [Example 207, 3-(6-Amino-5-benzothiazol-2-ylpyridin-3-yl)-N-(2-diethylaminoethyl)benzamide]: the IC50 against RON (human) and at MET (human) was 1000 to 20000 nM in each case.
As to `C[C@@H]1CN(C(=O)c2cccc(-c3cnc(N)c(-c4nc5ccccc5s4)c3)c2)C[C@H](C)N1` [Example 208, [3-(6-Amino-5-benzothiazol-2-ylpyridin-3-yl)phenyl]-(cis-3,5-dimethylpiperazin-1-yl)methanone], the IC50 on RON (human) fell in the range of 1000 to 20000 nM; on MET (human) it was 100 to 1000 nM.
For `Nc1ncc(-c2cccc(C(=O)NCCCN3CCCC3)c2)cc1-c1nc2ccccc2s1` [Example 209, 3-(6-Amino-5-benzothiazol-2-ylpyridin-3-yl)-N-(3-pyrrolidin-1-ylpropyl)benzamide] the same measures were 1000 to 20000 nM and 1000 to 20000 nM.
On to `CN1CCC(N(C)C(=O)c2cccc(-c3cnc(N)c(-c4nc5ccccc5s4)c3)c2)CC1` [Example 210, 3-(6-Amino-5-benzothiazol-2-ylpyridin-3-yl)-N-methyl-N-(1-methylpiperidin-4-yl)benzamide], for which the IC50 lay within 1000 to 20000 nM against RON (human) and 100 to 1000 nM against MET (human).
On to `Nc1ncc(-c2cccc(C(=O)N3CCN(CC(=O)N4CCCC4)CC3)c2)cc1-c1nc2ccccc2s1` [Example 211, 2-{4-[3-(6-Amino-5-benzothiazol-2-ylpyridin-3-yl)benzoyl]piperazin-1-pyrrolidin-1-yl}-1-ylethanone], for which the IC50 against RON (human) and against MET (human) was 1000 to 20000 nM each time.
Take `CC(=O)N1CCN(C(=O)c2cccc(-c3cnc(N)c(-c4nc5ccccc5s4)c3)c2)CC1` [Example 212, 1-{4-[3-(6-Amino-5-benzothiazol-2-ylpyridin-3-yl)benzoyl]piperazin-1-yl}ethanone]: the IC50 on RON (human) was greater than 20000 nM; on MET (human) it was 1000 to 20000 nM.
On the same counts, the results for `Nc1ncc(-c2cccc(C(=O)N3CCCC(O)C3)c2)cc1-c1nc2ccccc2s1` (stereo not shown) [Example 213, [3-(6-Amino-5-benzothiazol-2-ylpyridin-3-yl)phenyl]-(3-hydroxypiperidin-1-yl)methanone] are 1000 to 20000 nM and 1000 to 20000 nM.
On the same counts, the results for `C[C@@H]1CN(C(=O)c2cccc(-c3cnc(N)c(-c4nc5ccccc5s4)c3)c2)C[C@H](C)O1` [Example 214, [3-(6-Amino-5-benzothiazol-2-ylpyridin-3-yl)phenyl]-(cis-2,6-dimethylmorpholin-4-yl)methanone] are greater than 20000 nM and 1000 to 20000 nM.
For `CN(C)C(=O)CN1CCN(C(=O)c2cccc(-c3cnc(N)c(-c4nc5ccccc5s4)c3)c2)CC1` [Example 215, 2-{4-[3-(6-Amino-5-benzothiazol-2-ylpyridin-3-yl)benzoyl]piperazin-1-yl}-N,N-dimethylacetamide] the same measures were 1000 to 20000 nM and 1000 to 20000 nM.
`COCCN(CCOC)C(=O)c1cccc(-c2cnc(N)c(-c3nc4ccccc4s3)c2)c1` [Example 216, 3-(6-Amino-5-benzothiazol-2-ylpyridin-3-yl)-N,N-bis-(2-methoxyethyl)benzamide]: the IC50 on RON (human) and at MET (human) was greater than 20000 nM each time.
In the case of `Nc1ncc(-c2cccc(C(=O)N3CCC(N4CCCC4)CC3)c2)cc1-c1nc2ccccc2s1` [Example 217, [3-(6-Amino-5-benzothiazol-2-ylpyridin-3-yl)phenyl]-(4-pyrrolidin-1-ylpiperidin-1-yl)methanone], the IC50 against RON (human) lay within 1000 to 20000 nM; against MET (human), 100 to 1000 nM.
On the same counts, the results for `CN1CCC(NC(=O)c2cccc(-c3cnc(N)c(-c4nc5ccccc5s4)c3)c2)CC1` [Example 218, 3-(6-Amino-5-benzothiazol-2-ylpyridin-3-yl)-N-(1-methylpiperidin-4-yl)benzamide] are 1000 to 20000 nM and 100 to 1000 nM.
For `NC(=O)C1CCN(C(=O)c2cccc(-c3cnc(N)c(-c4nc5ccccc5s4)c3)c2)CC1` [Example 219, 1-[3-(6-Amino-5-benzothiazol-2-ylpyridin-3-yl)benzoyl]piperidine-4-carboxylic acid amide], the values for the concentration for half-maximal inhibition (IC50) against RON (human) and at MET (human) were greater than 20000 nM and 100 to 1000 nM, respectively.
`CN(C)CCN(C)C(=O)c1cccc(-c2cnc(N)c(-c3nc4ccccc4s3)c2)c1` [Example 220, 3-(6-Amino-5-benzothiazol-2-ylpyridin-3-yl)-N-(2-dimethylaminoethyl)-N-methylbenzamide]: the results for the IC50 against RON (human) and on MET (human) were 1000 to 20000 nM and 100 to 1000 nM, respectively.
On the same counts, the results for `Nc1ncc(-c2cccc(C(=O)N[C@H]3CCCC[C@@H]3O)c2)cc1-c1nc2ccccc2s1` [Example 221, 3-(6-Amino-5-benzothiazol-2-ylpyridin-3-yl)-N-((1S,2S)-2-hydroxycyclohexyl)benzamide] are 1000 to 20000 nM and 1000 to 20000 nM.
Turning to `Nc1ncc(-c2cccc(C(=O)N3CCC(O)C3)c2)cc1-c1nc2ccccc2s1` (stereo not shown) [Example 222, [3-(6-Amino-5-benzothiazol-2-ylpyridin-3-yl)phenyl]-(3-hydroxypyrrolidin-1-yl)methanone], the IC50 against RON (human) and against MET (human) was 1000 to 20000 nM throughout.
Consider `Nc1ncc(-c2cccc(C(=O)NCCCn3ccnc3)c2)cc1-c1nc2ccccc2s1` [Example 223, 3-(6-Amino-5-benzothiazol-2-ylpyridin-3-yl)-N-(3-imidazol-1-ylpropyl)benzamide], for which the concentration for half-maximal inhibition (IC50) at RON (human) and against MET (human) was 1000 to 20000 nM each time.
Consider `CN(C)C1CCN(C(=O)c2cccc(-c3cnc(N)c(-c4nc5ccccc5s4)c3)c2)C1` (stereo not shown) [Example 224, [3-(6-Amino-5-benzothiazol-2-ylpyridin-3-yl)phenyl]-(3-dimethylaminopyrrolidin-1-yl)methanone], for which the 50% inhibitory concentration (IC50) against RON (human) lay in the range of 1000 to 20000 nM; at MET (human), 100 to 1000 nM.
On the same counts, the results for `Nc1ncc(-c2cccc(C(=O)NCCCN3CCOCC3)c2)cc1-c1nc2ccccc2s1` [Example 225, 3-(6-Amino-5-benzothiazol-2-ylpyridin-3-yl)-N-(3-morpholin-4-ylpropyl)benzamide] are 1000 to 20000 nM and 1000 to 20000 nM.
On the same counts, the results for `CN1CCCN(C(=O)c2cccc(-c3cnc(N)c(-c4nc5ccccc5s4)c3)c2)CC1` [Example 226, [3-(6-Amino-5-benzothiazol-2-ylpyridin-3-yl)phenyl]-(4-methyl-[1,4]diazepan-1-yl)methanone] are 1000 to 20000 nM and 100 to 1000 nM.
For `Nc1ncc(-c2cccc(C(=O)N3CCC(F)(F)C3)c2)cc1-c1nc2ccccc2s1` [Example 227, [3-(6-Amino-5-benzothiazol-2-ylpyridin-3-yl)phenyl]-(3,3-difluoropyrrolidin-1-yl)methanone] the same measures were 1000 to 20000 nM and 1000 to 20000 nM.
As for `C[C@@H]1CN(C(=O)c2cccc(-c3cnc(N)c(-c4nc5ccccc5s4)c3)c2)C[C@H](C)N1C` [Example 228, [3-(6-Amino-5-benzothiazol-2-ylpyridin-3-yl)phenyl]-(cis-3,4,5-trimethylpiperazin-1-yl)methanone], the figures for the IC50 on RON (human) and against MET (human) were 1000 to 20000 nM and 100 to 1000 nM, respectively.
On the same counts, the results for `Nc1ncc(-c2cc3ccccc3[nH]2)cc1-c1nc2ccccc2s1` [Example 229, 3-(1,3-Benzothiazol-2-yl)-5-(1H-indol-2-yl)pyridin-2-amine] are 1000 to 20000 nM and 1000 to 20000 nM.
For the compound `Nc1ncc(-c2ccc[nH]2)cc1-c1nc2ccccc2s1` [Example 230, 3-(1,3-Benzothiazol-2-yl)-5-(1H-pyrrol-2-yl)pyridin-2-amine], the IC50 against RON (human) and against MET (human) was 1000 to 20000 nM in each case.
In the case of `CS(=O)(=O)Nc1ccc(-c2cnc(N)c(-c3nc4ccccc4s3)c2)cc1` [Example 231, N-4-[6-Amino-5-(1,3-benzothiazol-2-yl)pyridin-3-yl]phenylmethanesulfonamide], the IC50 against RON (human) and on MET (human) was 1000 to 20000 nM in each case.
For the compound `Nc1ncc(C2=CCNCC2)cc1-c1nc2ccccc2s1` [Example 232, 5-(1,3-Benzothiazol-2-yl)-1′,2′,3′,6′-tetrahydro-3,4′-bipyridin-6-amine], the values for the IC50 against RON (human) and on MET (human) were 1000 to 20000 nM and 100 to 1000 nM, respectively.
Consider `Nc1ncc(-c2cccc(O)c2)cc1-c1nc2ccccc2s1` [Example 233, 3-[6-Amino-5-(1,3-benzothiazol-2-yl)pyridin-3-yl]phenol], for which the IC50 against RON (human) was greater than 20000 nM; on MET (human), 1000 to 20000 nM.
On the same counts, the results for `COC(=O)COc1cccc(-c2cnc(N)c(-c3nc4ccccc4s3)c2)c1` [Example 234, Methyl 3-[6-amino-5-(1,3-benzothiazol-2-yl)pyridin-3-yl]phenoxyacetate] are greater than 20000 nM and 1000 to 20000 nM.
